The results in this text go back to patent US6716862B2, “5-(Substituted)-5-(substitutedsulfonyl or sulfanyl) thiazolidine-2,4-diones useful for inhibition of farnesyl-protein transferase” (Wyeth Holdings Corporation, priority 2001, dated 2004).

The target of data set [1] is FPTase (farnesyl-protein transferase) with H-Ras as substrate for farnesylation (UniProt P29702+P49355). The data set is described as follows: in vitro FTase Inhibition Assay (H-Ras substrate). It counts as biochemical. The procedure:
Enzyme assay: FPTase inhibition in vitro assay was performed according to James, G. L., Brown, M. S., and Goldstein, J. L., Methods in Enzymology, 1995, 255, 38-46; and Garcia, M. A., et al., J. Biol. Chem., 1993, 268,18415-18420.
Materials—Purified FPTase (Moomaw, J. F. and Casey, P. J., J. Biol. Chem., 1992, 267, 17438-17443), purified His6-Ras, inhibitor compounds at 10 mg/ml or 10 mM in 100% DMSO, ^3H-FPP (50,000 dpm/pmol) Amersham, TCA/SDS (6%/2%), TCA (6%), Glass fiber filters ([…]), vacuum manifold or 96 well filtration plates.
Methods—1. Dilute FPTase inhibitors from stock solutions to 2.5× in 2.5% DMSO, 10 mM DTT, 0.5% octyl-B-glucoside. 2. Solution #1 is added to FPTase reaction in a volume of […]. 3. Standard reaction mix, […], contains 50 mM Tris (7.5),[…], 3 mM MgCl2, 20 mM KCl, 5 mM DTT, 0.2% octyl-B-glucoside, 1% DMSO, […], 10 ng FPTase, and various concentrations of FPTase inhibitors. 4. Incubate for 30-90 min at 25° C. 5. Stop reactions with TCA/SDS (6%/2%), hold at 4° C. for 45-60 min. 6. Filter by manifold or 96 well plate, wash filter 3-5× with TCA (6%). 7. Add scintillant to filters, measure ^3H-FPP incorporation into Ras protein.
Analysis of Results—Percent inhibition by test compounds is determined by the following:
(cpm from precipitated Ras with test compounds)−(background cpm)×100=% inhibition.
(cpm from precipitated Ras without test compounds)−(background cpm)

Take `Cc1ccc(S(=O)(=O)C2(Cc3ccc(OCCc4nc(-c5ccccc5)oc4C)cc3)SC(=O)NC2=O)cc1` (stereo not drawn) [Example 1, 5-(4-[2-(5-Methyl-2-phenyloxazol-4-yl)ethoxy]benzyl)-5-(4-methylbenzenesulfonyl)thiazolidine-2,4-dione]: the melting point (commonly the temperature, or range, at which the solid turns liquid) lay in the range of 202 to 204 °C. Moreover, the IC50 (commonly the concentration that inhibits the measured activity by half) in data set [1] came out at 2250 nM.

In turn, `Cc1ccc(S(=O)(=O)C2(Cc3ccc(Br)cc3F)SC(=O)NC2=O)cc1` (stereo not drawn) [Example 2, 5-(4-Bromo-2-fluorobenzyl)-5-(4-methylbenzenesulfonyl)thiazolidine-2,4-dione] returned a melting point of 236 to 237 °C. For the same compound, the IC50 in data set [1] worked out at 6500 nM.

With `Cc1ccc(S(=O)(=O)C2(Cc3ccc(Cl)c(Cl)c3)SC(=O)NC2=O)cc1` (stereo not drawn) [Example 3, 5-(3,4-Dichlorobenzyl)-5-(4-methylbenzenesulfonyl)thiazolidine-2,4-dione], the melting point lay in the range of 183 to 184 °C. Moreover, the “Activity* (% inhib. at 10 μM)” value in data set [1] is “(1%)”.

For the compound `O=C1NC(=O)C(Cc2ccc(Br)cc2F)(S(=O)(=O)c2ccc3ccccc3c2)S1` (stereo not drawn) [Example 4, 5-(4-Bromo-2-fluorobenzyl)-5-(naphthalene-2-sulfonyl)thiazolidine-2,4-dione], the melting point lay in the range of 195 to 197 °C. The “Activity* (% inhib. at 10 μM)” value in data set [1] was “(1%)”.

Take `Cc1oc(-c2ccccc2)nc1CCOc1ccc(CC2(S(=O)(=O)c3ccc4ccccc4c3)SC(=O)NC2=O)cc1` (stereo not drawn) [Example 5, 5-(4-[2-(5-Methyl-2-phenyloxazol-4-yl)ethoxy]benzyl)-5-(naphthalene-2-sulfonyl)thiazolidine-2,4-dione]: the melting point lay within 133 to 136 °C. Besides, the “Activity* (% inhib. at 10 μM)” value in data set [1] is reported as “(−2%)”.

The compound `COc1ccc(S(=O)(=O)C2(Cc3ccccc3)SC(=O)NC2=O)cc1` (stereo not drawn) [Example 6, 5-Benzyl-5-(4-methoxybenzenesulfonyl)thiazolidine-2,4-dione] had a melting point of 146 to 152 °C. Further, in data set [1], the “Activity* (% inhib. at 10 μM)” value is “(21%)”.

With `COc1ccc(S(=O)(=O)C2(Cc3ccccc3)SC(=O)N(CC(=O)NO)C2=O)cc1` (stereo not drawn) [Example 7, 2-[5-Benzyl-5-(4-methoxybenzenesulfonyl)-2,4-dioxothiazolidin-3-yl]-N-hydroxyacetamide], in data set [1], the IC50 is 2500 nM.

`COc1ccc(C2(c3cccc(CC4(Sc5ccc(C)cc5)SC(=O)NC4=O)c3)OCCO2)cc1` (stereo not drawn) [Example 8, 5-(3-[2-(4-Methoxyphenyl)[1,3]dioxolan-2-yl]benzyl)-5-(4-methylbenzenesulfanyl)thiazolidine-2,4-dione] had an IC50 in data set [1] of 1300 nM.

`COc1ccc(C2(c3cccc(CC4(S(=O)(=O)c5ccc(C)cc5)SC(=O)NC4=O)c3)OCCO2)cc1` (stereo not drawn) [Example 9, 5-(3-[2-(4-Methoxyphenyl)[1,3]dioxolan-2-yl]benzyl)-5-(4-methylbenzenesulfonyl)thiazolidine-2,4-dione]: 1200 nM corresponded to half-maximal inhibition in data set [1] (IC50).

`COc1ccc(C(=O)c2cccc(CC3(S(=O)(=O)c4ccc(C)cc4)SC(=O)NC3=O)c2)cc1` (stereo not drawn) [Example 10, 5-(3-(4-methoxybenzoyl)benzyl)-5-(4-methylbenzenesulfonyl)thiazolidine-2,4-dione]: 4250 nM corresponded to half-maximal inhibition in data set [1] (IC50).

In the case of `COc1ccc(C(=O)c2cccc(CC3(Sc4ccc(C)cc4)SC(=O)NC3=O)c2)cc1` (stereo not drawn) [Example 11, 5-(3-(4-methoxybenzoyl)benzyl)-5-(4-methylbenzenesulfanyl)thiazolidine-2,4-dione], inhibition in data set [1] was half-maximal at 2500 nM (IC50).

In turn, `COc1ccc(C(O)c2cccc(CC3(Sc4ccc(C)cc4)SC(=O)NC3=O)c2)cc1` (stereo not drawn) [Example 12, 5-(3-[Hydroxy(4-methoxyphenyl)methyl]-benzyl)-5-(4-methylbenzenesulfanyl)thiazolidine-2,4-dione] came in with an IC50 in data set [1] of 3700 nM.

As for `Cc1ccc(S(=O)(=O)C2(Cc3ccc(Br)cc3)SC(=O)NC2=O)cc1` (stereo not drawn) [Example 13], the “Activity* (% inhib. at 10 μM)” value in data set [1] is on record as “(28%)”.

Consider `Cc1ccc(S(=O)(=O)C2(Cc3ccc(-c4ccccc4C#N)cc3)SC(=O)NC2=O)cc1` (stereo not drawn) [Example 14, 5-[2′-cyanobiphen-4-ylmethyl]-5-(4-methylbenzenesulfonyl)thiazolidine-2,4-dione], for which the IC50 in data set [1] turned out to be 77 nM.

Turning to `Cc1ccc(S(=O)(=O)C2(Cc3ccc(-c4ccccc4-c4nnn[nH]4)cc3)SC(=O)NC2=O)cc1` (stereo not drawn) [Example 15, 5-[2′-(1H-Tetrazol-5-yl)biphen-4-ylmethyl]-5-(4-methylbenzenesulfonyl)thiazolidine-2,4-dione], the “Activity* (% inhib. at 10 μM)” value in data set [1] is given as “(4%)”.

For `COc1ccc(S(=O)(=O)C2(Cc3ccc(-c4ccccc4C#N)cc3)SC(=O)NC2=O)cc1` (stereo not drawn) [Example 16, 5-[2′-cyanobiphen-4-ylmethyl]-5-(4-methoxybenzenesulfonyl)thiazolidine-2,4-dione], half-maximal inhibition in data set [1] (IC50) required 350 nM.

Regarding `COc1ccc(Cc2cccc(CC3(Sc4ccc(C)cc4)SC(=O)NC3=O)c2)cc1` (stereo not drawn) [Example 17, 5-[3-(4-Methoxybenzyl)benzyl]-5-(4-methylbenzenesulfanyl)thiazolidine-2,4-dione], half-maximal inhibition in data set [1] (IC50) was put at 2900 nM.

Turning to `Cc1ccc(SC2(Cc3cccc(C4(c5cccs5)OCCO4)c3)SC(=O)NC2=O)cc1` (stereo not drawn) [Example 18, 5-[3-(2-Thiophen-2-yl[1,3]dioxolan-2-yl)benzyl]-5-(4-methylbenzenesulfanyl)thiazolidine-2,4-dione], the IC50 in data set [1] was determined as 4500 nM.

For the compound `Cc1ccc(SC2(Cc3cccc(C(=O)c4cccs4)c3)SC(=O)NC2=O)cc1` (stereo not drawn) [Example 19, 5-[3-(Thiophene-2-carbonyl)benzyl]-5-(4-methylbenzenesulfanyl)thiazolidine-2,4-dione], the midpoint of inhibition in data set [1], the IC50, lay at 2800 nM.

Compound `COc1ccc(S(=O)(=O)C2(Cc3ccc(-c4ccccc4)cc3)SC(=O)NC2=O)cc1` (stereo not drawn) [Example 20, 5-Biphen-4-ylmethyl-5-(4-methoxybenzenesulfonyl)thiazolidine-2,4-dione] came in with a melting point of 119 to 122 °C. Besides, inhibition in data set [1] was half-maximal at 1700 nM (IC50).

`COc1ccc(S(=O)(=O)C2(Cc3ccc(-c4ccc(Cl)cc4)cc3)SC(=O)NC2=O)cc1` (stereo not drawn) [Example 21, 5-(4′-Chlorobiphen-4-ylmethyl)-5-(4-methoxybenzenesulfonyl)thiazolidine-2,4-dione] returned a melting point of 197 to 200 °C. The midpoint of inhibition in data set [1], the IC50, lay at 1000 nM.

`COc1ccc(S(=O)(=O)C2(Cc3ccc(-c4cccc(C(F)(F)F)c4)cc3)SC(=O)NC2=O)cc1` (stereo not drawn) [Example 22, 5-(4-Methoxybenzenesulfonyl)-5-(3′-(trifluoromethyl)biphen-4-ylmethyl)thiazolidine-2,4-dione] showed an IC50 in data set [1] of 2500 nM.

`COc1ccc(S(=O)(=O)C2(Cc3ccc(-c4cc(C(F)(F)F)cc(C(F)(F)F)c4)cc3)SC(=O)NC2=O)cc1` (stereo not drawn) [Example 23, 5-(3′,5′-Bis(trifluoromethyl)biphen-4-ylmethyl)-5-(4-methoxybenzenesulfonyl)thiazolidine-2,4-dione] yielded a melting point of 122 to 125 °C. Also, the IC50 in data set [1] is more than 10000 nM.

Take `COc1ccc(S(=O)(=O)C2(Cc3ccc(-c4ccc(Cl)cc4Cl)cc3)SC(=O)NC2=O)cc1` (stereo not drawn) [Example 24, 5-(2′,4′-Dichlorobiphen-4-ylmethyl)-5-(4-methoxybenzenesulfonyl)thiazolidine-2,4-dione]: the melting point lay in the range of 104 to 107 °C. Half-maximal inhibition in data set [1] (IC50) was put at 740 nM.

Turning to `Cc1ccc(SC2(Cc3cccc(Oc4cccc(Cl)c4)c3)SC(=O)NC2=O)cc1` (stereo not drawn) [Example 25, 5-[3-(3-Chlorophenoxy)benzyl]-5-(4-methylbenzenesulfanyl)thiazolidine-2,4-dione], in data set [1], the IC50 amounted to 3500 nM.

In data set [1], `Cc1ccc(S(=O)(=O)C2(Cc3cccc(C4(c5cccs5)OCCO4)c3)SC(=O)NC2=O)cc1` (stereo not drawn) [Example 26, 5-[3-(2-thiophen-2-yl[1,3]dioxolan-2-yl)benzyl]-5-(4-methylbenzenesulfonyl)thiazolidine-2,4-dione] yielded an IC50 of 6000 nM.
